This is an account of results in patent US20220370456A1, “COMBINATION THERAPIES COMPRISING SHP2 INHIBITORS AND EGFR TYROSINE KINASE INHIBITORS” (HUYABIO International, LLC, priority 2021, published 2022).

Where two headings read alike, the source gives them in different places.

One experiment deals with HCC827-ER1 cells. Nature of the experiment: Cell viability assay (CellTiter-Glo), cell proliferation. Type of experiment: cell-based. Conditions: for IC50: HCC827-ER1, read on Day 5, CellTiter-Glo, read-out: Absolute IC50. How it is done:
(§1) Cell lines and maintenance: Both cell lines (HCC827-ER1 and NCI-H1975) used for in vitro and in vivo studies were supplied by Crown Biosciences cell bank. […] NCI-H1975 cells were maintained in RPMI medium supplemented with 10% heat inactivated fetal bovine serum+100 ug/mL Hygromyocin at 37° C. in an atmosphere of 5% CO2 in air. The tumor cells were routinely subcultured twice weekly. The cells growing in an exponential growth phase were used for the in vitro cell potency and in vivo efficacy studies.
(§2) Cell Viability Assay: For cell cytotoxicity assays, cells were plated in 96-well plates and plating densities were determined on the basis of Crown Biosciences Cell line Database. Cells were plated at 2000 cells/well. Twenty four hours after plating, cells were treated with inhibitors at the indicated compound concentrations. On Day 5, cells were lysed with CellTiter-Glo® Luminescent Cell Viability Assay reagent (Promega) and luminescence was read using the EnVision Multi-plate reader. To calculate IC50s, a dose-response curve is generated using a nonlinear regression model with a sigmoidal dose response. IC50s were automatically generated by GraphPad Prism 8.0. The formula of surviving rate is shown below:
(§3) The surviving rate (%)=((LumTest article−LumMedium control)/(LumNone treated−LumMedium control))×100
A general note: ATP-based viability assays read luminescence as a measure of living cells.

Experiment [1] concerns NCI-H1975 (L858R/T790M/C797S) cells. The experiment is described as above. Conditions: for IC50: NCI-H1975 (L858R/T790M/C797S), read on Day 5, CellTiter-Glo, read-out: Absolute IC50. Type of experiment: cell-based. As to the method:
as §1, §2, §3

For a further experiment, the system named is HCC827-ER1 tumor. Nature of the experiment: HCC827-ER1 tumor model, in vivo tumor volume. As to conditions: HCC827-ER1 tumors in female Balb/C Nude animals, during treatment, FIG. 2A-B.

As usually defined, the IC50 is the concentration at which inhibition is half-maximal.

Method for HCC827-ER1 tumor: Animals (6-8 weeks) were obtained from Shanghai Lingchang Biotechnology Co., Ltd (Shanghai, China) and were allowed to acclimate prior to tumor cell inoculation.
All cell lines were maintained in culture and cells in exponential growth phase were harvested and quantitated by cell counter before tumor inoculation. HCC827-ER1 tumor cells (5×10^7) in 0.1 ml of PBS mixed with Matrigel (1:1) inoculated into female Balb/C Nude animals, mean tumor approximately 325 mm^3 at the start of treatment.
The date of randomization and treatment initiation was denoted as day 0. Tumor volumes were measured twice per week in two dimensions using a caliper, and the volume will be expressed in mm^3 using the formula: V=(L×W×W)/2, where V is tumor volume, L is tumor length (the longest tumor dimension) and W is tumor width (the longest tumor dimension perpendicular to L). Dosing volume was 10 mL/kg/day. GH21005 were dissolved in HP-β-CD was dissolved with 200 ml of 50 mM sodium citrate (pH=4.2). Anti-PD-1 and Rat IgG2a were diluted in PBS.
Upon termination, tumors were collected 2 hours post last dose.

Regarding `N.N.[Cl][Pt][Cl]` [Cisplatin], the half-inhibitory concentration (IC50) with HCC827-ER1 cells came to 7170 nM; in experiment [1], 10300 nM.
Regarding `C[C@H]1OCC2(CCN(c3cnc(Sc4ccnc(N)c4Cl)c(N)n3)CC2)[C@H]1N` [GH21001(TNO-155)], the 50% inhibitory concentration (IC50) in the experiment on HCC827-ER1 cells (120 h) was 1890 nM; in experiment [1] (Homo sapiens, 120 h) it was more than 10000 nM.
Consider `C[C@@H]1OCC2(CCN(c3cnc(Sc4cccc(NC(=O)c5c(O)nc6n(c5=O)CCCC6)c4Cl)cn3)CC2)[C@@H]1N` [GH21005(HBI-2376), N-(3-((5-((3S,4S)-4-amino-3-methyl-2-oxa-8-azaspiro[4.5]decan-8-yl)pyrazin-2-yl)thio)-2-chlorophenyl)-2-hydroxy-4-oxo-6,7,8,9-tetrahydro-4H-pyrido[1,2-a]pyrimidine-3-carboxamide], for which the “effect on tumor volume” value in the experiment with HCC827-ER1 tumor is given as “did not result in a reduction of tumor volume”. For the same compound, the half-inhibitory concentration (IC50) is 80 nM in the experiment on HCC827-ER1 cells (120 h) and 960 nM in experiment [1] (Homo sapiens, 120 h). The “potency in cell proliferation assay compared to TNO-155 and RMC-4550” value with HCC827-ER1 cells (HCC827-ER1 cell model, FIG. 1A) is “superior potency”; in experiment [1] (NCI-H1975 cell model, FIG. 1B) it was “superior potency”.
Consider `C=CC(=O)Nc1cc(Nc2nccc(-c3cn(C)c4ccccc34)n2)c(OC)cc1N(C)CCN(C)C` [Osimertinib], for which the “effect on tumor volume” value with HCC827-ER1 tumor is “only a slight and temporary decrease in tumor volume, followed by growth in tumor volume”. The IC50 is 2800 nM with HCC827-ER1 cells (120 h) and […] in experiment [1] (Homo sapiens, 120 h).
